The structures appear in SMILES notation. Entries after “also recorded” stand apart in the source; their conditions may differ.

In series [1] the test system is patients with MDS or AML. To be noted: in vivo.
Series [2] relates to patients with MDS or AML. Briefly: MTD study CL005: hematological response, IWG criteria. The class given is in vivo, human. An excerpt:
Assessment of IWG criteria for certain patients in the MTD study is presented below in Table 10.

The conditions of series [3]: in vivo.
The nature of series [4]: clinical. The conditions noted are these: human, in vivo.
Series [5] in a line: Rapid Aza Clinical Evaluation (RACE) study CL008: plasma PK. The class given is in vivo. The conditions noted are these: human; for AUC(0-t) / AUC(0-inf): sc; for AUC(0-t): 75 mg/m^2, one subject (Formulation 4 cohort), SC 75 mg/m^2 (124 mg); for AUC(0-inf): SC 75 mg/m^2 (120 mg). On the procedure: Several oral formulations were evaluated in this study. A “3+7” cohort of patients was enrolled in the study, i.e., three patients were initially tested per formulation, and the cohorts could increase in size up to ten patients. Cohorts were enrolled in parallel.

As to `Nc1ncn([C@@H]2O[C@H](CO)[C@@H](O)[C@H]2O)c(=O)n1` [azacitidine, 4-amino-1-β-D-ribofuranosyl-1,3,5-triazin-2(1H)-one], the “dose limited toxicity (DLT)” value in series [1] is “none of the patients have shown dose limited toxicity (DLT)”. Besides, the “IWG Assessment” value in series [2] (Patient 02004 (MDS), SC cycle 1, then oral 120 mg x7d Formulation #1 Cycles 2-6, 180 mg x7d Cycles 7-12) is reported as “morphologic complete response (CR); also recorded: Per IWG 2006 criteria, the patient achieved complete response (CR); also recorded: achieved morphologic complete response per the IWG AML criteria; also recorded: with regard to the ANC condition for the IWG 2000 CR criteria, the patient did not meet the criteria for a complete response; also recorded: CR per IWG 2006 (Days 45-98); also recorded: Morphologic CR per the IWG AML criteria (Diagnosis is MDS)”; in series [2] (Patient 02007 (CMML), Cohort 4, oral 240 mg Formulation #3 after SC cycle 1, per IWG 2000 criteria), “HI-P major improvement per IWG 2000 (Days 35-202)”; in series [2] (Patient 02008 (MDS RAEB-1), Cohort 4, oral 240 mg Formulation #3 after SC cycle 1), “HI-P major improvement per IWG 2000 (Days 34-110)”; in series [2] (Patient 02009 (MDS RAEB-2), Cohort 4, oral 240 mg Formulation #3 after SC cycle 1), “Marrow CR (Days 7-111+) per IWG 2006”; in series [2] (Patient 02011 (MDS RAEB-1), Cohort 5, oral 300 mg Formulation #3 after SC cycle 1, per IWG 2006 criteria), “Marrow CR (Days 7-177+) per IWG 2006”; in series [2] (Patient 02011 (MDS RAEB-1), Cohort 5, oral 300 mg Formulation #3 after SC cycle 1, per revised IWG AML criteria) it was “Morphologic CR per the revised IWG AML criteria on Day 21”. The platelets versus baseline entry in series [2] (Patient 02007, oral azacitidine starting with cycle 2 (Formulation #3, 240 mg)) is reported as “increase in platelets above the baseline levels”. For the same molecule, the “dose proportionality of exposure” value in series [3] was “did not result in dose-proportional increase in exposure”. In addition, the AUC – broadly, concentration integrated over time – was 330 ng·h/mL in series [4] (po, 180 mg); 1000 ng·h/mL in series [4] (sc, 75 mg/m2); roughly 1700 ng·h/mL in series [5] (75 mg/m^2, one subject (Formulation 6 cohort), following SC dosing, read-out: AUC (rounded)). In addition, in series [4] (po, 180 mg), the bioavailability (as a rule, dose-corrected exposure relative to a reference, in per cent) is 30%. Besides, the AUC(0-inf) (as a rule, the area under the concentration-time curve extrapolated to infinity) in series [4] (sc, 75 mg/m2, AUC(0-inf)) was found to be 1210 ng·h/mL; in series [5] (75 mg/m^2, one subject (Formulation 6 cohort), day 1), 1720 ng·h/mL; in series [5] (75 mg/m^2, one subject (Formulation 6 cohort), day 15) it was 1640 ng·h/mL. Also, the area under the curve AUC(0-t) (in general, the area under the concentration-time curve up to a stated or last time point) stood at 1140 ng·h/mL in series [4] (sc, 75 mg/m2, AUC(0-t)); 2390 ng·h/mL in series [5] (day 1); 2440 ng·h/mL in series [5] (day 15). Further, in series [4] (sc, 75 mg/m2, Cmax), the concentration peaked (Cmax) at 697 ng/mL. In series [4] (sc, 75 mg/m2, Tmax), the Tmax (as a rule, the time at which the peak concentration occurs) was 0.51 h. For the same molecule, the half-life (commonly the time in which the quantity being followed falls by half) in series [4] (sc, 75 mg/m2, t½) was 1.73 h.

(Values after patent publication US8846628B2, “Oral formulations of cytidine analogs and methods of use thereof” (Celgene Corporation, priority 2008, dated 2014).)
